Tests used:
[1] = tested on: acetyl Co-A carboxylase (ACC); experiment: ACC phosphorylation in Neuro2a cells (phospho-specific western blot); format: cell-based; conditions: resveratrol 10 μM or AICAR 1 mM; all time points to 72 hr
Protocol: (§1) FIG. 10A-D illustrates resveratrol activation of AMP kinase in Neuro2a cells. Neuro2a cells were switched to serum-starvation medium (medium containing 0.2% FCS) and treated with DMSO (vehicle control), resveratrol (10 μM) or 5-aminoimidazole-4-carboxamide-1-β-D-ribofuranoside (AICAR) (1 mM). […] Very low levels of phosphorylated AMPK and ACC were detected in DMSO treated control cells at all time points tested. (C) Densitometric analysis of changes in phosphorylated AMPK and (D) phosphorylated ACC under different conditions is shown.
Plasmids and viruses. […] Quantitative RT-PCR analysis was performed using Sybr-Green methodology on a model 7700 instrument (Applied Biosystems) as previously described (Araki et al., 2004, Science 305:1010-1013). […]
To explore the role of polyphenols, in particular, of resveratrol, we tested whether resveratrol altered the activity of AMPK in neuronal cells. […] To confirm that AMPK activation by resveratrol results in typical AMPK-mediated downstream responses, we monitored phosphorylation of ACC (acetyl Co-A carboxylase), a primary target of activated AMPK. […] To examine a potential mechanism of resveratrol-mediated AMPK activation, we measured cellular ATP levels as a decreased ATP:AMP ratio increases the phosphorylation of AMPK. […]

[2] = tested on: neuro2A cells; experiment: Neuro2a cell proliferation, Ki67 immunocytochemistry; format: cell-based; conditions: 0.2% fetal calf serum; AICAR 1 mM or resveratrol 10 μM; 24 h after plating; DMSO controls 50%
Protocol: (§2) Neuro2a cells are a widely used as in vitro model of neuronal differentiation. These cells cease to proliferate and begin to differentiate, as evidenced by neurite outgrowth, in response to serum starvation, retinoic acid, or growth factors like neurotrophins and GDNF family ligands. […] Neuro2a cells grown under serum starvation conditions (0.2% fetal calf serum) were treated with AICAR (1 mM) or resveratrol (10 μM).

[3] = tested on: neuro2A cells; experiment: neurite outgrowth in Neuro2a cells; format: cell-based; conditions: 0.2% FCS; resveratrol 10 μM or AICAR 1 mM
Protocol: FIG. 11A-D illustrates the resveratrol and AICAR stimulation of neurite outgrowth in Neuro2a cells. Neuro2a cells were switched to serum-starvation medium (medium containing 0.2% FCS) and treated with DMSO (vehicle control), resveratrol (10 μM) or AICAR (1 mM). (A) Serum deprivation of Neuro2a cells results in growth of short neurites that increase in length over 72 h. (B) Resveratrol induced rapid neurite outgrowth resulting in elaborate neurite network formation by 48 h. (C) AICAR stimulated extensive neurite outgrowth similar to that observed with resveratrol. (D).
FIG. 12A-M illustrates the dependency of resveratrol-induced neurite outgrowth and mitochondrial biogenesis on AMPK. Neuro2a cells were infected with lentivirus expressing GFP only (FUGW, control), dominant negative AMPK (dnAMPK) or constitutively active AMPK (caAMPK). Three days later cells were shifted to serum-starvation medium containing DMSO (control) or resveratrol (10 μM). In addition, uninfected Neuro2a cells in serum-starvation medium were treated with resveratrol alone, the AMPK inhibitor Compound C (CC, Biomol International L.P. (Plymouth Meeting, Pa.)) (10 μM) alone or with resveratrol and CC together. Images of the cultures captured in bright field and green fluorescence were overlaid to visualize neurite outgrowth. […] Neurite length in cells treated with caAMPK+resveratrol is also shown (G). […] Values were normalized to the 18S transcript. Data shown is representative of two independent experiments.
(§3) Cell culture and Reagents. Neuro2 cells obtained from ATCC were grown in MEM with 1.5 g/L sodium bicarbonate, 0.1 mM nonessential amino acids, 0.1 mM sodium pyruvate, 2 mM L-glutamine with 10% FCS. For differentiation, cells were switched to serum-starvation medium (containing 0.2% FCS). For neurite outgrowth measurements, experiments were done in quadruplicate and 100 neurites per well were randomly measured using the Metamorph software. Dorsal root ganglia sensory and cortical neurons were established from E13.5 mouse embryos, maintained in neurobasal medium supplemented with B27 (and NGF for DRG neurons) and infected with lentiviruses as described (Araki et al., 2004, Science 305:1010-1013; Hawley et al., 2005, Cell Metab 2:21-23). Resveratrol was a gift from Sirtris Pharmaceuticals (Cambridge Mass.) and AICAR was obtained from Toronto Research (North York, Canada). Splitomycin and Compound C were purchased from Biomol (Plymouth Meeting, Pa.) and Calbiochem (San Diego, Calif.). Sirtinol and nicotinamide were purchased from Sigma (Saint Louis, Mo.)
as §2
Since resveratrol activated AMPK and altered the differentiation of Neuro2a cells, we next asked whether AMPK activity was required for resveratrol-induced neurite outgrowth. To address this issue, we infected Neuro2a cells with lentivirus expressing either GFP alone (FUGW-control) or dominant negative AMPK (dnAMPK). After 3 days growth to allow robust lentiviral transgene expression, the medium was replaced with serum starvation medium. […] Resveratrol-induced neurite outgrowth was reduced in the presence of the AMPK pharmacological inhibitor Compound C (CC 10 μM) further supporting the importance of AMPK activity for resveratrol-induced neurite outgrowth.

[4] = tested on: neuro2A cells; experiment: survival of Neuro2A cells in nutrient-deprived conditions; format: cell-based; conditions: regardless of the FCS concentration (10% or 0.2%)
Protocol: When Neuro2A cells are grown in culture in presence of 10% FCS, cells proliferate and ultimately die if cells are not passaged. If grown in the presence of 0.2% FCS, neuro2A cells differentiate and project neurites but ultimately die within one week.

[5] = tested on: AMPK; experiment: AMPK phosphorylation in Neuro2a cells (phospho-specific western blot); format: cell-based; conditions: resveratrol 10 μM or AICAR 1 mM; 2 h up to 72 h
Protocol: as §1, §3
Plasmids and viruses. The dominant negative (dnAMPK) and constitutively active (caAMPK) plasmids were gifts from Russell Jones (University of Pennsylvania, Philadelphia Pa.), and pCXN-Cre was a gift of Inder Verma (Salk Institute, San Diego, Calif.). All constructs were subcloned into the lentiviral shuttle vector FCIV and verified by nucleotide sequence analysis. Viruses were prepared as previously described (Araki et al., 2004, Science 305:1010-1013). Protein and mRNA analysis. Immunoprecipitations and western blot analysis were performed by standard methods using antibodies directed against total AMPK, phosphorylated AMPK, total ACC or phosphorylated ACC that were obtained from Cell Signaling Technology (Beverley, Mass.). The phospho-AMPK antibody detects endogenous AMPK α1 and α2 when phosphorylated at threonine 172. The LKB1 antibody was purchased from Upstate (Lake Placid, N.Y.). Quantitative RT-PCR analysis was performed using Sybr-Green methodology on a model 7700 instrument (Applied Biosystems) as previously described (Araki et al., 2004, Science 305:1010-1013). Primer sequences were those used in previous studies (Motoshima, et al., 2006, J Physiol 574:63-71).
To explore the role of polyphenols, in particular, of resveratrol, we tested whether resveratrol altered the activity of AMPK in neuronal cells. Neuro2a neuroblastoma cells were treated with resveratrol (10 μM) and AMPK activation was examined using phospho-AMPK specific antibodies. […] To confirm that AMPK activation by resveratrol results in typical AMPK-mediated downstream responses, we monitored phosphorylation of ACC (acetyl Co-A carboxylase), a primary target of activated AMPK. […] To examine a potential mechanism of resveratrol-mediated AMPK activation, we measured cellular ATP levels as a decreased ATP:AMP ratio increases the phosphorylation of AMPK. ATP levels were monitored using a luciferase-based assay in neuro2A cells treated with resveratrol or Oligomycin, an inhibitor of mitochondrial oxidative phosphorylation and therefore ATP production. While the ATP concentration dropped from 5.874 μM in DMSO-treated cells (control) to 0.976 μM in Oligomycin treated cells within 2 hr, the ATP concentration in resveratrol-treated Neuro2a cells was not altered from control either at 2 hr (6.33 μM) or 24 hr (6.42 μM).

[6] = tested on: DRG neurons; experiment: axonal injury of DRG neurons after hypoxia and reoxygenation; format: cell-based; conditions: preincubation 45 min or lentiviral expression; 0.1% O2 8 or 16 hrs, 20 hrs reoxygenation
Protocol: FIG. 18 illustrates that activation of AMPK protects axons while inhibition of AMPK function enhances axonal injury during oxygen deprivation.
To examine whether AMPK activation prior to hypoxic stress protects axons from injury, either constitutively active AMPK (CaAMPK) was expressed in DRG neurons, or neurons were preincubated with the AMPK activator AICAR for 45 min prior to hypoxia. […] Thus, treatments that increase AMPK activity (e.g. resveratrol, AICAR) can block the axonal damage and are neuroprotective.

[7] = tested on: Nrk2; experiment: NAD synthesis enzyme mRNA in rotenone-treated DRG neurons (qRT-PCR); format: cell-based, rat; conditions: 0.1 μM and 1 μM, 24 hours
Protocol: FIG. 6A-B illustrates expression analysis of NAD biosynthetic enzymes in mammal showing (A) NAD biosynthesis enzyme mRNA levels after 1, 3, 7, and 14 days after nerve transection in rat DRG were determined by qRT-PCR in which the expression level was normalized to glyceraldehydes-3-phosphate dehydrogenase expression in each sample and is indicated relative to the expression level in non-axotomized DRG; (B) neurite degeneration introduced by incubation DRG in 1 or 0.1 μM rotenone for indicated time and NAD synthesis enzyme mRNA levels were determined by qRT-PCR as described in the text.
Real-time quantitative reverse transcription-PCR analysis. All the surgical procedures were performed according to National Institute of Health guidelines for care and use of laboratory animals at Washington University. […] Quantitative reverse transcription (RT)-PCR was performed by monitoring in real-time the increase in fluorescence of the SYBR-GREEN dye on a TaqMan 7700 Sequence Detection System (Applied Biosystems).
To investigate the expression of mammalian NAD biosynthetic enzymes in the nervous system, we performed quantitative RT-PCR using RNA from mouse brain, retina, spinal code, and DRG at age of E14, P0, P7, P14 and P21. […] We also analyzed expression of NAD synthetic enzymes during the axonal degeneration caused by neurotoxin in cultured rat DRG neuron. […]

| SMILES | ACC phosphorylation [1] | proliferating cells (Ki67) [2] | neurite outgrowth compared to serum starvation alone [3] | cell survival [4] | AMPK phosphorylation [5] | axonal injury (axonal beading) after hypoxia [6] | increase in expression of Nrk2 [7] |
| --- | --- | --- | --- | --- | --- | --- | --- |
| NC(=O)c1ncn([C@@H]2O[C@H](CO)[C@@H](O)[C@H]2O)c1N [AICAR, 5-aminoimidazole-4-carboxamide-1-β-D-ribofuranoside, reference compound] | promoted increased phosphorylation | 12.8% | increased neurite outgrowth | resistant to death for a prolonged period of time | stimulated AMPK phosphorylation | significantly reduced axonal injury after hypoxia |  |
| C=C(C)[C@H]1Cc2c(ccc3c2O[C@@H]2COc4cc(OC)c(OC)cc4[C@@H]2C3=O)O1 [rotenone] |  |  |  |  |  |  | more than 6 folds |
